Residues, ends and D or L forms follow the SMILES beside them. *: point of attachment. X1 = CC(=O)N[C@@H]1[C@@H](O)[C@H](O)[C@@H](CO)O[C@@H]1*
Key:
Neprilysin = Neprilysin (Homo sapiens, UniProt P08473); test: Inhibition of human recombinant neutral endopeptidase using […] as substrate after 20 to 40 mins by fluorometry
Aminopeptidase N = Aminopeptidase N (Homo sapiens, UniProt P15144); test: Inhibition of human recombinant aminopeptidase N using […] as substrate after 20 to 40 mins by fluorometry
Chain of Aminopeptidase N (P15144 whole entry): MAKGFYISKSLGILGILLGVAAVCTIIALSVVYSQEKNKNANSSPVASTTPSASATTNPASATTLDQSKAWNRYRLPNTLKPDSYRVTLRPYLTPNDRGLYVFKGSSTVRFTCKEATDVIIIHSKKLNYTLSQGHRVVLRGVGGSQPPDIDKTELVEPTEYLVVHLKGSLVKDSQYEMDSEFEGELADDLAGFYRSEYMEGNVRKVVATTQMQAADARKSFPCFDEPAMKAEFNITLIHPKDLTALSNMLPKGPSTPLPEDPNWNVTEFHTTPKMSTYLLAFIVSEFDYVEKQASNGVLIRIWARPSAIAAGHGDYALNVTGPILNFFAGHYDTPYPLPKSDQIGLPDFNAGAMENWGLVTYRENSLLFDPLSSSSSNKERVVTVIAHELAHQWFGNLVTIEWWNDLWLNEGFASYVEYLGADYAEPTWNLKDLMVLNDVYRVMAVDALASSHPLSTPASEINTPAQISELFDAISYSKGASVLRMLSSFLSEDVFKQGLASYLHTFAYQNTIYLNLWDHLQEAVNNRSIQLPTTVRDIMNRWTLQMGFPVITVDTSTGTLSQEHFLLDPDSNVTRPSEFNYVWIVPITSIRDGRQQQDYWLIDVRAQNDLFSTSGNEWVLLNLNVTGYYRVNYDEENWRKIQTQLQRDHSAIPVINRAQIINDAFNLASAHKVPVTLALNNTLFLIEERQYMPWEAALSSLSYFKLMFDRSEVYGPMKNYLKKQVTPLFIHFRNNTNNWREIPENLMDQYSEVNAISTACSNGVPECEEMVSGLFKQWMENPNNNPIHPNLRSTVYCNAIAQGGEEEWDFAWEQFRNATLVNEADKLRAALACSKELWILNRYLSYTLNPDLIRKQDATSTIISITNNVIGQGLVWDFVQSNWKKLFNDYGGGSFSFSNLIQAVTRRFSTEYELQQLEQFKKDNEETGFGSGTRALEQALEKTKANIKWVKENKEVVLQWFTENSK

Chain of Neprilysin (P08473 whole entry): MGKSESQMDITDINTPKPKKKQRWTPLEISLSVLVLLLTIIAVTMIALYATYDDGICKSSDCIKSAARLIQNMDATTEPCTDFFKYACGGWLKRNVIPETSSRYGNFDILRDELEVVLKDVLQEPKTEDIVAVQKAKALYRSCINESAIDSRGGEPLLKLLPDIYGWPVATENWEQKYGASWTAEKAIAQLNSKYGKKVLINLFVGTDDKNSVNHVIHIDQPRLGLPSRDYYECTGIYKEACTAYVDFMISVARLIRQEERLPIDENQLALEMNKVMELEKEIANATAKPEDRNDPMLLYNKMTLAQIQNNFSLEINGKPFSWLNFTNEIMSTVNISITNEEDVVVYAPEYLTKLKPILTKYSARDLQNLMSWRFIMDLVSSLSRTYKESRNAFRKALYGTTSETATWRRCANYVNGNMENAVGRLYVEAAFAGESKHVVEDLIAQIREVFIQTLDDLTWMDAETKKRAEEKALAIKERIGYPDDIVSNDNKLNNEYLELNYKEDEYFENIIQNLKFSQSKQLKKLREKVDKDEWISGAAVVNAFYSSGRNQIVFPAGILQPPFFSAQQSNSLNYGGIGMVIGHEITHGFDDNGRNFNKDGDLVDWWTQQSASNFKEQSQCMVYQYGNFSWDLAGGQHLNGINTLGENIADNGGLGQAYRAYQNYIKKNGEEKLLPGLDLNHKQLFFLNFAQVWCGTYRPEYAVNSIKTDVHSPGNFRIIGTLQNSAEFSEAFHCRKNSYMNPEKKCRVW

IC50 (Neprilysin)	IC50 (Aminopeptidase N)	Compound
> 100 µM		H-QRFCR-OH
> 100 µM	> 100 µM	H-QRFTR-OH
50 µM	> 70 µM	H-QKFSR-OH
> 100 µM	> 100 µM	CC(=O)N[C@H]1[C@@H](O[C@H](C)[C@H](NC(=O)[C@H](Cc2ccccc2)NC(=O)[C@H](CCCNC(=N)N)NC(=O)[C@@H](N)CCC(N)=O)C(=O)N[C@@H](CCCNC(=N)N)C(=O)O)O[C@H](CO)[C@@H](O)[C@@H]1O (H-QRFT(X1)R-OH)
35 µM	> 70 µM	H-QRFSK-OH

From ChEMBL document CHEMBL3632516, “Influence of polar side chains modifications on the dual enkephalinase inhibitory activity and conformation of human opiorphin, a pain perception related peptide” (Bioorg Med Chem Lett, 2015)
